“Also recorded” adds a separate entry of the source.
Key:
Type in all cases: in vivo
mice [1] = assay: Accelerating rotarod (motor coordination); settings: 5-60 min post-injection, i.p.
Description: The rotarod test was conducted to compare the effects of ketamine, (2S,6S)-HNK and (2R,6R)-HNK on motor coordination. The experiment consisted of two phases: training phase (4 days) and a test phase (1 day). On each of the training days five trials (trial time: 3 min) were conducted with an inter-trial interval of two min Mice were individually placed on the rotarod apparatus (HTC Life Science; Woodland Hills, Calif., USA) and the rotor (3.75 inch diameter) accelerated from 5-20 RPM over a period of three minutes. Latency to fall was recorded for each trial. Animals with an average of <100 sec of latency to fall during the last training day were excluded from the experiment. On the test day (day 5), mice received (i.p.) injections of saline, (R,S)-KET (10 mg/kg), (2S,6S)-HNK (25 or 125 mg/kg) or (2R,6R)-HNK (2.5 or 125 mg/kg) and were tested in the rotating rod 5-. 10-, 15-, 20-, 30- and 60-min post-injection using the same procedure described for the training days.

male CD-1 mice = assay: Learned helplessness (LH); settings: single injection
Text: Male CD-1 mice (8-10 weeks old, Charles River Laboratories, Mass., USA) were housed in groups of four-five per cage with a constant 12-hour light/dark cycle (lights on/off at 07:00/19:00). Food and water were available ad libitum. Mice acclimatized to the new environment for seven days prior to the start of the experiments. For the whole-cell NMDA current electrophysiological recordings, male Sprague-Dawley rats (housed three per cage; Charles River, Wilmington, Mass.) were used. EPSC recording were done from rats at postnatal day 24-25. All experimental procedures were approved by the University of Maryland, Baltimore Animal Care and Use Committee and were conducted in full accordance with the National Institutes of Health Guide for the Care and Use of Laboratory Animals.
The LH paradigm consisted of three different phases, i.e., inescapable shock training, LH screening, and the LH test. For the inescapable shock portion of the test (Day 1), the animals were placed in one side of two-chambered shuttle boxes (34 cm height×37 cm width×18 cm depth; Coulbourn Instruments, PA, USA), with the door between the chambers closed. Following a five-min adaptation period, 120 inescapable foot-shocks (0.45 mA, 15 sec duration, randomized average inter-shock interval of 45 sec) were delivered through the grid floor. During the screening session (Day 2), the mice were placed in one of the two chambers of the apparatus for 5 min. A shock (0.45 mA) was then delivered, and the door between the two chambers was raised simultaneously. Crossing over into the second chamber terminated the shock. […] A total of 30 screening trials of escapable shocks were presented to each mouse with an average of 30 sec delay between each trial. Mice that developed helplessness behavior (>5 escape failures during the last 10 screening shocks) were administered with the respective drug 24 hours following screening (Day 3). During the LH test phase (Day 4), the animals were placed in the shuttle boxes and, after a 5-min adaptation period, a 0.45 mA shock was delivered concomitantly with door opening for the first five trials, followed by a 2-sec delay for the next 40 trials. Crossing over to the second chamber terminated the shock. […] A total of 45 trials of escapable shock were presented to each mouse with 30 sec inter-trial intervals. The number of escape failures was recorded for each mouse.

mice [2] = assay: Chronic corticosterone-induced anhedonia, female urine sniffing test; settings: single administration, mice with anhedonic phenotype, re-test 24 hours later
Description: A separate cohort of mice were treated with the same chronic corticosterone administration paradigm as described above, and 24 hours later assessed for female urine sniffing preference as a measure of hedonic behavior. Mice were singly-housed in freshly-made home cages for a habituation period of 10 min. Subsequently, one plain cotton tip was secured on the center of the cage wall and mice were allowed to sniff and habituate to the tip for a period of 30 min. Then, the plain cotton tip was removed and replaced by two cotton tip applicators one infused with fresh female mouse estrus urine and the other with fresh male mouse urine. These applicators were presented at the same time and secured at the two corners of the cage wall. Sniffing time for both the female and male urine was scored by a trained observer for a period of three minutes.

With `N[C@@]1(c2ccccc2Cl)CCC[C@@H](O)C1=O` [(2R,6R)-HNK, (2R,6R)-2-amino-2-(2-chlorophenyl)-6-hydroxycyclohexanone] the “motor coordination in the rotarod” value (mice [1]) was “did not affect coordination”, the “doses with antidepressant-like effects in learned helplessness” value (male CD-1 mice) was 5 to 75 mg/kg and the “antidepressant-like effect in learned helplessness (escape failures)” value (male CD-1 mice; test 24 hours after administration) was “greater potency and longer-lasting antidepressant-like effects; also recorded: dose-dependent antidepressant-like responses; also recorded: more potent antidepressant effects; also recorded: dose-dependent antidepressant action”. For the same compound, the “reversal of chronic corticosterone-induced decrease in female urine sniffing preference” value (mice [2]) was “reversed chronic corticosterone-induced decrease in female urine sniffing preference; also recorded: reversed chronic corticosterone-induced anhedonia”.
